Data reported in patent publication US20130059916A1, “BIGUANIDE COMPOUNDS AND ITS USE FOR TREATING CANCER” (priority 2010, published 2013).

What was measured:
human G361 cells = test: Cell viability of human G361 cells, FIG. 2; format: cell-based; settings: metformin 0 to 20 mM
Excerpt: AICAR [aminoimidazole carboxamide ribonucleotide] an AMPK agonist, is used as reference.

[1] = test system: human melanomas cells (A375); test: Cell viability of human melanoma cells (A375), FIG. 1; format: cell-based; settings: 0 to 20 mM, 72 h and 96 h
Protocol: (§1) FIG. 1 discloses a study on viability cells of human melanomas cells (A375) in comparison to normal human melanocytes.
(§2) Doses of metformin used for this experiment are in a range between 0 to 20 mM at 72 h and 96 h.

normal human melanocytes = test: Cell viability of normal human melanocytes, FIG. 1; format: cell-based; settings: 0 to 20 mM, 72 h and 96 h
Protocol: as §1, §2

[2] = test system: freshly human melanoma cells isolated from patients; test: Cell viability of freshly isolated human melanoma cells from patients, FIG. 1'; format: cell-based; settings: 0 to 10 mM, 72 h
Protocol: FIG. 1′ discloses a study on viability cells of freshly human melanoma cells isolated from patients.
Doses of metformin used for this experiment are in a range between 0 to 10 mM at 72 h.

melanoma cells [3] = test: Cell death by FACS analysis of propidium iodide uptake, FIG. 1''; format: cell-based
Protocol: Cell death was measured by FACS analysis of propidium iodide uptake.

AMPK = test: Cell viability after AMPK disruption using si-RNA (Western Blot), FIG. 3; format: cell-based
A375 melanoma cells = test: Mouse model of melanoma xenograft (A375), FIG. 4; format: in vivo, athymic nude mice; settings: 2 mg/mouse/day by injection, after 23 days of treatment
melanoma cells [4] = test: TUNEL assay of mouse tumor sections, FIG. 4'; format: in vivo; settings: tumor sections of metformin-treated mice
B16 melanoma cells = test: Syngenic model, allograft of B16 melanoma cells, FIG. 4''; settings: B16 allograft in C57B16 mice

| SMILES | percentage of cell viability (human G361 cells) | effect on cell viability of melanoma cells [1] | effect on cell viability of melanocytes (normal cells) (normal human melanocytes) | effect on cell viability of melanoma cells [2] | cell death (propidium iodide uptake) (melanoma cells [3]) | dependence of the effect on cell viability on AMPK (AMPK) | volume of melanoma (A375 melanoma cells) | weight of melanoma (A375 melanoma cells) | TUNEL-positive cells in the tumors (melanoma cells [4]) | volume of tumor (B16 melanoma cells) | weight of tumor (B16 melanoma cells) |
| --- | --- | --- | --- | --- | --- | --- | --- | --- | --- | --- | --- |
| NC(=O)c1ncn([C@@H]2O[C@H](CO)[C@@H](O)[C@H]2O)c1N [AICAR, aminoimidazole carboxamide ribonucleotide] | no significative effect |  |  |  |  |  |  |  |  |  |  |
| CN(C)C(=N)NC(=N)N [Metformin, N,N-dimethylimidodicarbonimidic diamide] | significant dose dependent decrease | dose dependent effect | no effect | dose dependent effect | induces a dose dependent cell death | independent on AMPK | decreases significantly | decreases significantly | increase in TUNEL-positive cells | diminished | diminished |
